Data from ChEMBL document CHEMBL4627364, “Design, synthesis and biological evaluation of novel hybrids of N-aryl pyrrothine-base α-pyrone as bacterial RNA polymerase inhibitors” (Bioorg Med Chem Lett, 2020).
Values after ≈ are worked out from the molar mass of the structure shown.

Legend:
[1] = Inhibition of Escherichia coli RNA polymerase
[2] = test system: Candida albicans; experiment: Antifungal activity against Candida albicans ATCC 10231 assessed as fungal growth inhibition; assay type: functional
[3] = test system: Pseudomonas aeruginosa; experiment: Antibacterial activity against Pseudomonas aeruginosa ATCC 27853 assessed as bacterial growth inhibition; assay type: functional
[4] = test system: Escherichia coli; experiment: Antibacterial activity against Escherichia coli ATCC 25922 assessed as bacterial growth inhibition; assay type: functional
[5] = test system: Enterococcus faecalis; experiment: Antibacterial activity against Enterococcus faecalis ATCC 29212 assessed as bacterial growth inhibition; assay type: functional
[6] = test system: Bacillus subtilis; experiment: Antibacterial activity against Bacillus subtilis ATCC 6633 assessed as bacterial growth inhibition; assay type: functional
[7] = test system: Staphylococcus aureus; experiment: Antibacterial activity against Staphylococcus aureus ATCC 29213 assessed as bacterial growth inhibition; assay type: functional
[8] = Inhibition of recombinant Escherichia coli RNA polymerase
[9] = test system: HepG2; experiment: Cytotoxicity against human HepG2 cells assessed as reduction in cell viability by MTT assay; assay type: cell-based
[10] = test system: Staphylococcus aureus; experiment: Antibacterial activity against vancomycin-resistant Staphylococcus aureus assessed as bacterial growth inhibition; assay type: functional
[11] = test system: Staphylococcus aureus; experiment: Antibacterial activity against methicillin-resistant Staphylococcus aureus assessed as bacterial growth inhibition; assay type: functional
[12] = test system: Staphylococcus aureus; experiment: Antibacterial activity against rifampicin-resistant Staphylococcus aureus assessed as bacterial growth inhibition; assay type: functional
[13] = test system: Escherichia coli; experiment: Inhibition of Escherichia coli RNA polymerase at 200 uM relative to control

With COc1ccc(-n2c3cssc-3c(NC(=O)NCCOC(=O)CCCCCCC(=O)c3c(O)cc(C)oc3=O)c2=O)c(OC)c1 the IC50 [1] was 56.3 µM, the MIC [2] was over 128 µg/mL and the MIC [3] was over 128 µg/mL. The MIC [4] was over 128 µg/mL, the MIC [5] was 32 µg/mL (≈ 48.5 µM) and the MIC [6] was 128 µg/mL (≈ 194 µM). For the same compound, the MIC [7] was 128 µg/mL (≈ 194 µM).

Compound CCC/C(C)=C/C=C(\C)C(=O)c1c(O)cc([C@H](C)CC/C=C/NC(=O)OC)oc1=O [MYXOPORIN A] has an IC50 [8] of 24 µM.

For CO[C@H]1/C=C/O[C@@]2(C)Oc3c(C)c(O)c4c(O)c(c(/C=N/N5CCN(C)CC5)c(O)c4c3C2=O)NC(=O)/C(C)=C\C=C\[C@H](C)[C@H](O)[C@@H](C)[C@@H](O)[C@@H](C)[C@H](OC(C)=O)[C@@H]1C [RIFAMPIN], the IC50 [1] was 0.14 µM, the IC50 [9] was 145 µM and the MIC [10] was 0.0625 to 0.125 µg/mL (≈ 0.0759 to 0.152 µM). It also gave an MIC [11] of 0.125 to 0.25 µg/mL (≈ 0.152 to 0.304 µM), an MIC [12] of over 64 µg/mL and an MIC [2] of over 64 µg/mL. For the same compound, the MIC [3] was over 64 µg/mL, the MIC [4] was 8 µg/mL (≈ 9.72 µM) and the MIC [5] was 0.5 µg/mL (≈ 0.608 µM). The MIC [6] was 0.125 µg/mL (≈ 0.152 µM) and the MIC [7] was 0.5 µg/mL (≈ 0.608 µM).

For COc1ccc(-n2c3cssc-3c(NC(=O)OCCOC(=O)CCCCCCC(=O)c3c(O)cc(C)oc3=O)c2=O)c(OC)c1, the IC50 [1] was 16.1 µM, the IC50 [9] was 7.04 µM and the MIC [10] was 2 to 4 µg/mL (≈ 3.03 to 6.05 µM). The MIC [11] was 1 to 2 µg/mL (≈ 1.51 to 3.03 µM), the MIC [12] was 1 to 2 µg/mL (≈ 1.51 to 3.03 µM) and the MIC [2] was over 128 µg/mL. For the same compound, the MIC [3] was over 128 µg/mL, the MIC [4] was over 128 µg/mL and the MIC [5] was 2 µg/mL (≈ 3.03 µM). It also gave an MIC [6] of 32 µg/mL (≈ 48.4 µM) and an MIC [7] of 1 µg/mL (≈ 1.51 µM).

In the case of COc1ccc(-n2c3cssc-3c(NC(=O)OCCOC(=O)CCCC(=O)c3c(O)cc(C)oc3=O)c2=O)c(OC)c1, the inhibition [13] is reported as 41.3%, the IC50 [9] is reported as 1.97 µM and the MIC [10] is reported as 4 to 8 µg/mL (≈ 6.47 to 12.9 µM). It also gave an MIC [11] of 1 to 2 µg/mL (≈ 1.62 to 3.23 µM), an MIC [12] of 1 to 2 µg/mL (≈ 1.62 to 3.23 µM) and an MIC [2] of over 128 µg/mL. It also gave an MIC [3] of over 128 µg/mL, an MIC [4] of over 128 µg/mL and an MIC [5] of 4 µg/mL (≈ 6.47 µM). The MIC [6] was 32 µg/mL (≈ 51.7 µM) and the MIC [7] was 1 µg/mL (≈ 1.62 µM).

With COc1ccc(-n2c3cssc-3c(NC(=O)CCCCC(=O)c3c(O)cc(C)oc3=O)c2=O)c(OC)c1 the inhibition [13] was 42.4%, the MIC [2] was over 128 µg/mL and the MIC [3] was over 128 µg/mL. The MIC [4] was over 128 µg/mL, the MIC [5] was 64 µg/mL (≈ 118 µM) and the MIC [6] was 16 µg/mL (≈ 29.4 µM). The MIC [7] was 2 µg/mL (≈ 3.67 µM).

With COc1ccc(-n2c3cssc-3c(NC(=O)NCCOC(=O)CCCCC(=O)c3c(O)cc(C)oc3=O)c2=O)c(OC)c1 the inhibition [13] was 36.5%, the MIC [2] was over 128 µg/mL and the MIC [3] was over 128 µg/mL. For the same compound, the MIC [4] was over 64 µg/mL, the MIC [5] was 16 µg/mL (≈ 25.3 µM) and the MIC [6] was 128 µg/mL (≈ 203 µM). The MIC [7] was 4 µg/mL (≈ 6.33 µM).

Work on COc1ccc(-n2c3cssc-3c(NC(=O)CCCC(=O)c3c(O)cc(C)oc3=O)c2=O)c(OC)c1 yielded an inhibition [13] of 35.4%, an IC50 [9] of 29 µM and an MIC [10] of 4 to 8 µg/mL (≈ 7.54 to 15.1 µM). It also gave an MIC [11] of 1 to 2 µg/mL (≈ 1.88 to 3.77 µM), an MIC [12] of 2 to 4 µg/mL (≈ 3.77 to 7.54 µM) and an MIC [2] of over 128 µg/mL. For the same compound, the MIC [3] was over 128 µg/mL, the MIC [4] was over 64 µg/mL and the MIC [5] was 16 µg/mL (≈ 30.2 µM). For the same compound, the MIC [6] was 32 µg/mL (≈ 60.3 µM) and the MIC [7] was 2 µg/mL (≈ 3.77 µM).

Work on COc1ccc(-n2c3cssc-3c(NC(=O)NCCOC(=O)CCCC(=O)c3c(O)cc(C)oc3=O)c2=O)c(OC)c1 yielded an inhibition [13] of 25.3%, an MIC [2] of over 128 µg/mL and an MIC [3] of over 128 µg/mL. The MIC [4] was over 64 µg/mL, the MIC [5] was 4 µg/mL (≈ 6.48 µM) and the MIC [6] was 32 µg/mL (≈ 51.8 µM). It also gave an MIC [7] of 32 µg/mL (≈ 51.8 µM).

In the case of COc1ccc(-n2c3cssc-3c(NC(=O)N(C)CCOC(=O)CCCC(=O)c3c(O)cc(C)oc3=O)c2=O)c(OC)c1, the inhibition [13] is reported as 23.8%, the IC50 [9] is reported as 5.32 µM and the MIC [10] is reported as 2 to 4 µg/mL (≈ 3.17 to 6.33 µM). It also gave an MIC [11] of 1 to 2 µg/mL (≈ 1.58 to 3.17 µM), an MIC [12] of 2 to 4 µg/mL (≈ 3.17 to 6.33 µM) and an MIC [2] of over 128 µg/mL. It also gave an MIC [3] of over 128 µg/mL, an MIC [4] of over 128 µg/mL and an MIC [5] of 2 µg/mL (≈ 3.17 µM). For the same compound, the MIC [6] was 32 µg/mL (≈ 50.7 µM) and the MIC [7] was 2 µg/mL (≈ 3.17 µM).

CN[C@H](CC(C)C)C(=O)N[C@H]1C(=O)N[C@@H](CC(N)=O)C(=O)N[C@H]2C(=O)N[C@H]3C(=O)N[C@H](C(=O)N[C@H](C(=O)O)c4cc(O)cc(O)c4-c4cc3ccc4O)[C@H](O)c3ccc(c(Cl)c3)Oc3cc2cc(c3O[C@@H]2O[C@H](CO)[C@@H](O)[C@H](O)[C@H]2O[C@H]2C[C@](C)(N)[C@H](O)[C@H](C)O2)Oc2ccc(cc2Cl)[C@H]1O [VANCOMYCIN] gave an MIC [10] of over 64 µg/mL, an MIC [11] of 1 to 2 µg/mL (≈ 0.69 to 1.38 µM) and an MIC [12] of 1 to 2 µg/mL (≈ 0.69 to 1.38 µM). The MIC [4] was over 128 µg/mL and the MIC [6] was 1 µg/mL (≈ 0.69 µM).

O=C(O)c1cn(C2CC2)c2cc(N3CCNCC3)c(F)cc2c1=O [CIPROFLOXACIN] showed an MIC [4] of 0.00625 µg/mL (≈ 0.0189 µM), an MIC [5] of 0.5 µg/mL (≈ 1.51 µM) and an MIC [6] of 0.125 µg/mL (≈ 0.377 µM). For the same compound, the MIC [7] was 0.078 µg/mL (≈ 0.235 µM).

For COc1ccc(-n2c3cssc-3c(NC(=O)CCCCCCC(=O)c3c(O)cc(C)oc3=O)c2=O)c(OC)c1, the inhibition [13] was 43.4%, the MIC [2] was over 128 µg/mL and the MIC [3] was over 128 µg/mL. It also gave an MIC [4] of over 128 µg/mL, an MIC [5] of over 128 µg/mL and an MIC [6] of 32 µg/mL (≈ 55.9 µM). The MIC [7] was 64 µg/mL (≈ 112 µM).

For COc1ccc(-n2c3cssc-3c(NC(=O)N(C)CCOC(=O)CCCCC(=O)c3c(O)cc(C)oc3=O)c2=O)c(OC)c1, the IC50 [1] was 45.9 µM, the IC50 [9] was 2.76 µM and the MIC [10] was 4 to 8 µg/mL (≈ 6.19 to 12.4 µM). It also gave an MIC [11] of 1 to 2 µg/mL (≈ 1.55 to 3.1 µM), an MIC [12] of 1 to 2 µg/mL (≈ 1.55 to 3.1 µM) and an MIC [2] of over 128 µg/mL. It also gave an MIC [3] of over 128 µg/mL, an MIC [4] of over 128 µg/mL and an MIC [5] of 16 µg/mL (≈ 24.8 µM). The MIC [6] was 32 µg/mL (≈ 49.6 µM) and the MIC [7] was 2 µg/mL (≈ 3.1 µM).

COc1ccc(-n2c3cssc-3c(NC(=O)N(C)CCOC(=O)CCCCCCC(=O)c3c(O)cc(C)oc3=O)c2=O)c(OC)c1 showed an inhibition [13] of 32.1%, an MIC [2] of over 128 µg/mL and an MIC [3] of over 128 µg/mL. For the same compound, the MIC [4] was over 64 µg/mL, the MIC [5] was 8 µg/mL (≈ 11.9 µM) and the MIC [6] was 32 µg/mL (≈ 47.5 µM). It also gave an MIC [7] of 16 µg/mL (≈ 23.7 µM).

COc1ccc(-n2c3cssc-3c(NC(=O)OCCOC(=O)CCCCC(=O)c3c(O)cc(C)oc3=O)c2=O)c(OC)c1 gave an IC50 [1] of 65.9 µM, an IC50 [9] of 9.43 µM and an MIC [10] of 2 to 4 µg/mL (≈ 3.16 to 6.32 µM). The MIC [11] was 1 to 2 µg/mL (≈ 1.58 to 3.16 µM), the MIC [12] was 2 to 4 µg/mL (≈ 3.16 to 6.32 µM) and the MIC [2] was over 128 µg/mL. The MIC [3] was over 128 µg/mL, the MIC [4] was over 128 µg/mL and the MIC [5] was 16 µg/mL (≈ 25.3 µM). The MIC [6] was 32 µg/mL (≈ 50.6 µM) and the MIC [7] was 2 µg/mL (≈ 3.16 µM).
